Measurements from US20080221158A1, “Novel 14 and 15 Membered Ring Compounds” (PLIVA - Istrazivacki Institut d.o.o, priority 2003, published 2008).

Assays:
Assay in all cases: MIC against various organisms (broth dilution)
Type in all cases: cell-based
E. faecalis ATCC 29212 = conditions: Enterococcus faecalis, ATCC29212
Description: (§1) Using a standard broth dilution method in microtitre, compounds were tested for antibacterial activity. The compounds in the above examples gave minimum inhibitory concentrations (MICS) less than 1 microgram per millilitre against erythromycin-sensitive and erythromycin-resistant strains of Streptococcus pneumoniae and Streptococcus pyogenes.
(§2) In addition, the MIC (1 μg/mL) of test compounds against various organisms was determined including:
(§3) S. aureus Smith ATCC 13709, S. pnetnioniae SP030, S. pyogenes 3565, E. faecalis ATCC 29212, H. influenza ATCC 49247, M. catarrhalis ATCC 23246.

H. influenzae ATCC 49247 = conditions: Haemophilus influenzae, ATCC49247
Description: as §1, §2, §3

[1] = system: M. catarrhalis ATCC 23246; conditions: Moraxella catarrhalis, ATCC23246
Description: as §1, §2, §3

[2] = system: S. aureus Smith ATCC 13709; conditions: Staphylococcus aureus, ATCC13709
Description: as §1, §2, §3

S. pneumoniae SP030 = conditions: Streptococcus pneumoniae
Description: as §1, §2, §3

S. pyogenes 3565 = conditions: Streptococcus pyogenes
Description: as §1, §2, §3

Structure (SMILES)	MIC (E. faecalis ATCC 29212) [µg/mL]	MIC (H. influenzae ATCC 49247) [µg/mL]	MIC [1] [µg/mL]	MIC [2] [µg/mL]	MIC (S. pneumoniae SP030) [µg/mL]	MIC (S. pyogenes 3565) [µg/mL]
CC[C@H]1OC(=O)[C@H](C)[C@@H](O[C@H]2C[C@@](O)(OC)[C@@H](NC(=O)CCOCCNc3cc4c(=O)c(C(=O)O)cn(C5CC5)c4cc3Cl)[C@H](C)O2)[C@H](C)[C@@H](OC2O[C@H](C)C[C@H](N(C)C)[C@H]2O)[C@](C)(O)C[C@@H](C)CN(C)[C@H](C)[C@@H](O)[C@]1(C)O (stereo partly drawn) [Example 1]	< 1	< 2	< 2	< 1	< 1	< 1
CC[C@H]1OC(=O)[C@H](C)[C@@H](O[C@H]2C[C@@](O)(OC)[C@@H](NC(=O)CCOCCNc3cc4c(=O)c(C(=O)O)cn(C5CC5)c4cc3Cl)[C@H](C)O2)[C@H](C)[C@@H](O[C@@H]2O[C@H](C)C[C@H](N(C)C)[C@H]2O)[C@](C)(O)C[C@@H](C)CN(C)[C@H](C)[C@@H](O)[C@]1(C)O [Example 2]	< 1	< 2	< 2	< 1	< 1	< 1
CC[C@@H]1OC(=O)[C@H](C)[C@H](O[C@@H]2C[C@@](O)(OC)[C@@H](NC(=O)CCOCCOc3cc4c(=O)c(C(=O)O)cn(C5CC5)c4cc3Cl)[C@H](C)O2)[C@@H](C)[C@H](O[C@@H]2O[C@H](C)C[C@H](N(C)C)[C@@H]2O)[C@](C)(O)C[C@H](C)CN(C)[C@H](C)[C@@H](O)[C@]1(C)O [Example 3, 4″-(S)-(3-[2-(3-Carboxy-7-chloro-1-cyclopropyl-4-oxo-1,4-dihydro-quinolin-6-yloxy)ethoxy]-propionylamino]-4″-deoxyazithromycin]	< 1	< 2	< 2	< 1	< 1	< 1
